Patent US20050043331A1, “Substituted 3-(2,5-disubstituted)pyridyl-4-aryl pyrroles for treating inflammatory diseases” (priority 2002, published 2005)
Where two headings read alike, the source gives them in different places.

Experiments:
TNF-α [1] = assay: In vivo rodent assay for inhibition of LPS-induced TNF-α production; design: species or system Mice (BALB/cJ females); details: Mus musculus, po, 10 mg/kg oral
Protocol: Mice (BALB/cJ females, Jackson Laboratories) or rats (Lewis males, Charles River) were fasted for 30 min. The animals were dosed orally on a mg/kg basis at a range of times prior to being injected intraperitoneally with LPS at 1 mg/kg and returned to their cages for 1 h. Animals were anesthetized by CO2, exsanguinated by cardiac puncture and whole blood collected (0.1-0.7 mL). The blood was allowed to clot and serum was transferred to a centrifuge tube. This sample was centrifuged, and serum was collected, aliquoted and frozen at −80° C. Samples were tested by commercial ELISA's for TNF-α (Endogen for mouse TNF-α and Biosource for rat TNF-α).

P38 = P38 (Homo sapiens, UniProt Q16539); assay: P38 cell, 1 μM LJ; assay type: cell-based; design: unit not given here
TNF-α [2] = assay: In-vitro whole cell assay for TNF-α inhibition (LPS-stimulated PBMC, ELISA); assay type: cell-based; details: TNF-α by ELISA
Protocol: Freshly obtained venous blood was anticoagulated with heparin, diluted with an equal volume of phosphate buffered saline (“PBS”) and placed in a sterile tube or other container. Aliquots (30 mL) of this mixture were transferred to centrifuge tubes, which were underlaid with Ficoll-Hypaque (15 mL). The prepared tubes were centrifuged at 400×g, without braking, for 30 min at room temperature. Approximately ½ to ⅔ of the platelet layer above the mononuclear cell band was removed with a pipette. The majority of the mononuclear cell layer was carefully removed using a pipette and these PBMC's were diluted with PBS and spun at 600×g for 15 min. The resulting PBMC's were washed with another portion of PBS and spun at 400×g for 10 min at room temperature. The recovered pellets were diluted in low endotoxin RPMI/1% FCS culture medium, and gave a cell concentration of 0.5-2.0×10^6 PMBC/ mL. A small volume of the suspension was removed for counting on a hemocytometer and the remaining preparation was centrifuged at 200×g for 15 min at room temperature. The recovered pelleted PMBC's were resuspended in RPMI/1% FCS to a concentration of 1.67×10^6/mL.
To run the assay, the PBMC suspension (180 μL) was transferred to duplicate wells of a 96-well flat-bottom microtiter plate and incubated for 1 h at 37° C. A solution of test compound (10 μL: prepared at 20× the desired final concentration) was added to each well and the plate was incubated for 1 h at 37° C. A solution (10 μL) of LPS in RPMI/1% FCS (200 ng/mL) was added and the wells were incubated overnight at 37° C. The supernate (100 μL) was removed from each well and diluted with RPMI/1% FCS (400 μL). The samples were analyzed for TNF-α using a commercial ELISA kit (Genzyme).

[3] = 0.5 h, 0.5 h, read-out: Mouse 10 mg/kg % inhib 0.5 h
[4] = 2 h, 2 h, read-out: Mouse 10 mg/kg % inhib 2 h

P38, sequence (Q16539 whole entry): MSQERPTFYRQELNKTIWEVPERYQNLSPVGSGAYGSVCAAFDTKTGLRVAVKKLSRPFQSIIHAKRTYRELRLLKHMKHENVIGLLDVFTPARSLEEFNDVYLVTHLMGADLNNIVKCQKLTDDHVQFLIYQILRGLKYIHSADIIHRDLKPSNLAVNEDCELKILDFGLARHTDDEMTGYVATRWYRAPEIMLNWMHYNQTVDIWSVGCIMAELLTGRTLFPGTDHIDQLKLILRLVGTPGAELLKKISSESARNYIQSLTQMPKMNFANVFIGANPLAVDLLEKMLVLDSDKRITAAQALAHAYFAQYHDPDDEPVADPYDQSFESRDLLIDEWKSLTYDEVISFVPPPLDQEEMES

P38 cell 1 μM LJ (P38) | IC50 (TNF-α [2]) | SMILES | inhibition in vivo at 10 mg/kg (TNF-α [1]; [3]) | inhibition in vivo at 10 mg/kg (TNF-α [1]; [4])
4 | 108 nM | CCn1cc(-c2ccncc2)c(-c2ccc(F)cc2)c1C(=O)OC [Cpd 85] | 53% | 
11 | 543 nM | CNC(=O)c1c(-c2ccc(F)cc2)c(-c2ccncc2)c(Br)n1C [Cpd 84] | 53% | 
1 | 10000 nM | COC(=O)c1c(-c2ccc(F)cc2)c(-c2ccncc2)cn1CCN1CCOCC1 [Cpd 60] |  | 
4 | 86 nM | CCOC(=O)c1c(-c2ccc(F)cc2)c(-c2ccncc2)c(Br)n1C [Cpd 87] |  | 
18 | 1480 nM | CNC(=O)c1c(-c2ccc(F)cc2)c(-c2ccncc2)cn1C [Cpd 76] | 67% | 78%
−2 | 125 nM | CCOC(=O)c1c(-c2ccc(F)cc2)c(-c2ccncc2)cn1C [Cpd 86] |  | 
12 | 51 nM | COC(=O)c1c(-c2ccc(F)cc2)c(-c2ccncc2)c(N)n1C [Cpd 9, 5-Amino-3-(4-fluorophenyl)-1-methyl-4-(4-pyridinyl)-1H-pyrrole-2-carboxylic acid methyl ester] | 53.9% | 
21 | 1380 nM | CN(C)C(=O)c1c(-c2ccc(F)cc2)c(-c2ccncc2)cn1C [Cpd 95] | 33% | 
1 | 301 nM | CN(C)C(=O)c1c(-c2ccc(F)cc2)c(-c2ccncc2)c(Br)n1C [Cpd 97] | -41% | 
 | 150 nM | O=C1CCCn2cc(-c3ccncc3)c(-c3ccc(F)cc3)c21 [Cpd 134] | 61% | 31%
 | 157 nM | Cn1cc(-c2ccncc2)c(-c2ccc(F)cc2)c1C(=O)NCC(=O)c1ccccc1 [Cpd 34, 3-(4-Fluorophenyl)-1-methyl-N-(2-oxo-2-phenylethyl)-4-(4-pyridinyl)-1H-pyrrole-2-carboxamide] | 81% | 37%
62 | 211 nM | CCOC(=O)c1c(-c2ccc(Br)cc2)c(-c2ccncc2)cn1C [Cpd 77] |  | 
 | 138 nM | O=C1CCn2cc(-c3ccncc3)c(-c3ccc(F)cc3)c21 [Cpd 22, 7-(4-Fluorophenyl)-2,3-dihydro-6-(4-pyridinyl)-1H-pyrrolizin-1-one] | 63% | -3%

Second part, the compound before the results:

SMILES | P38 cell 1 μM LJ (P38) | IC50 (TNF-α [2]) | inhibition in vivo at 10 mg/kg (TNF-α [1]; [3]) | inhibition in vivo at 10 mg/kg (TNF-α [1]; [4])
Cn1c(C(=O)OC(C)(C)C)c(-c2ccc(F)cc2)c(-c2ccncc2)c1N1CCNCC1 [Cpd 94] | 10 | 420 nM | 25% | 
Fc1ccc(-c2c[nH]c(CN3CCc4ccccc4C3)c2-c2ccncc2)cc1 [Cpd 72] | 32 | 40 nM | 63% | 
COC(=O)c1c(-c2ccc(F)cc2)c(-c2ccncc2)c(N2CCN(C(=O)OC(C)(C)C)CC2)n1C [Cpd 8a] | 28 | 4260 nM |  | 
CC(C)NC(=O)c1c(-c2ccc(F)cc2)c(-c2ccncc2)c(N2CCNCC2)n1C [Cpd 89] | 22 |  |  | 
Cn1c(Br)c(-c2ccncc2)c(-c2ccc(F)cc2)c1C(=O)OC(C)(C)C [Cpd 82] | 8 | 1890 nM | -7% | 
COC(=O)c1c(-c2ccc(F)cc2)c(-c2ccncc2)c(N2CCOCC2)n1C [Cpd 81] | 12 | 47 nM | -41% | 
CCOC(=O)c1c(-c2ccc(C)cc2)c(-c2ccncc2)c(Br)n1C [Cpd 79] | 9 | 736 nM | -76% | 
Cn1c(C(=O)C2CC2)c(-c2ccc(F)cc2)c(-c2ccncc2)c1N1CCN(C(=O)C2CC2)CC1 [Cpd 107] | 11 | 36 nM |  | 
COC(=O)c1c(-c2ccc(F)cc2)c(-c2ccncc2)c(N2CCN(C)CC2)n1C [Cpd 10, 3-(4-Fluorophenyl)-1-methyl-5-(4-methyl-1-piperazinyl)-4-(4-pyridinyl)-1H-pyrrole-2-carboxylic acid methyl ester] | 1 | 95 nM | 89% | 
CC(=O)c1c(-c2ccc(F)cc2)c(-c2ccncc2)c(N2CCNCC2)n1C [Cpd 91] | 29 | 40 nM | 39% | 
COC(=O)c1c(-c2ccc(F)cc2)c(-c2ccncc2)c(N=C(c2ccccc2)c2ccccc2)n1C [Cpd 98] | −2 | 52 nM | -49% | 
COC(=O)c1c(-c2ccc(F)cc2)c(-c2ccncc2)c(N2CCCC2)n1C [Cpd 80] | 32 | 17 nM | -38% | 
CCOC(=O)c1[nH]cc(-c2ccncc2)c1-c1ccc(C)cc1 [Cpd 75] | 42 | 136 nM |  | 
CN(Cc1ccccc1)Cc1[nH]cc(-c2ccc(F)cc2)c1-c1ccncc1 [Cpd 73] | 78 | 91 nM | 37% | 
COC(=O)C(=O)c1c(-c2ccc(F)cc2)c(-c2ccncc2)c(N2CCNCC2)n1C [Cpd 108] | 15 | 28 nM | 52% | 
Cn1c(N2CCCC2)c(-c2ccncc2)c(-c2ccc(F)cc2)c1C(C)(C)O [Cpd 111] |  | 192 nM | 37.7% | 
CCCNC(=O)c1c(-c2ccc(F)cc2)c(-c2ccncc2)c(N2CCNCC2)n1C [Cpd 88] | 7 | 10000 nM |  | 
CCN1CCN(c2c(-c3ccncc3)c(-c3ccc(F)cc3)c(C(=O)OC)n2C)CC1 [Cpd 124] |  | 135 nM | 67.8% | 
COC(=O)c1c(-c2ccc(F)cc2)c(-c2ccncc2)c(NCc2cccc(OC)c2)n1C [Cpd 177] |  | 407 nM |  | 63%
CC(=O)c1c(-c2ccc(F)cc2)c(-c2ccncc2)c(N2CCN(C(C)=O)CC2)n1C [Cpd 92] | 6 | 43 nM | 61% | 28%
COC(=O)c1c(-c2ccncc2)c(-c2ccc(F)cc2)c(C#CCN2CCOCC2)n1C [Cpd 44, 4-(4-Fluorophenyl)-1-methyl-5-[3-(4-morpholinyl)-1-propynyl]-3-(4-pyridinyl)-1H-pyrrole-2-carboxylic acid methyl ester] |  | 788 nM |  | 47%
CCOC(=O)N1CCN(c2c(-c3ccncc3)c(-c3ccc(F)cc3)c(C(=O)OC)n2C)CC1 [Cpd 179] |  | 30 nM |  | 8%
C=CC#Cc1c(-c2ccc(F)cc2)c(-c2ccncc2)c(C(=O)OC)n1C [Cpd 176] |  | 34 nM |  | -20%
COC(=O)c1c(-c2ccc(F)cc2)c(-c2ccncc2)c(NCCN2CCCC2)n1CCN1CCOCC1 [Cpd 156] |  | 969 nM | 23% | 
COC(=O)c1c(-c2ccc(F)cc2)c(-c2ccncc2)c(-c2cccc(NC(C)=O)c2)n1C [Cpd 144] |  | 2 nM | 59% | 
CC(C)C(C)NC(=O)c1c(-c2ccc(F)cc2)c(-c2ccncc2)c(N2CCNCC2)n1C (stereo not drawn) [Cpd 90] | 15 |  |  | 
